In patent US20050065199A1, “Low-salt or salt-free microbicidal composition based on isothiazolone derivatives and pyrion disulphide” (priority 2003, published 2005):
Read-outs that look alike come from different tables or passages of the source.

What was measured:
[1] = Stabilization of Kathon 39 FG / bromo-2-nitropropane-1,3-diol basic preparation: appearance and pH on storage
Experimental: A basic preparation which contained 88.34% of purified water, 6.00% of bromo-2-nitropropane-1,3-diol and 5.66% of Kathon 39 FG was made. […] Kathon 39 FG is a mixture of CMI and MI prepared with solvent and a low salt and water content (available from Rohm & Haas Company). Thereafter, 100 g of the basic preparation were brought to a pH of 5.16 with triethanolamine (preparation A) and with imidazole to a pH of 5.32 (preparation B). Preparation C was prepared with the addition of 0.1% of pyrion disulphide to 100 g of the basic preparation. The basic preparation D (without addition) acted as reference. The appearance of a freshly made preparation and the appearance as affected by increasing storage times were examined. In addition, the pH of all preparations was tested after 35 days.

[2] = Experimental: Moreover, it is preferred that the reaction is carried out over a period of 5 minutes to 4 hours, preferably up to 120 minutes and in particular up to 60 minutes. Suitable reaction temperatures are in the range of from 0 to 80° C., preferably 10 to 40° C. and in particular 20 to 30° C. If appropriate, the stabilizer solution obtained after the reaction can be filtered in order to remove troublesome solid components.

stabilization of aqueous CMI/MI-based preparation containing 6.00% of bromo-2-nitropropane-1,3-diol [1] | solubility in water [2] [% by weight] | Compound | stabilization of aqueous CMI/MI-based preparation containing 6.00% of bromo-2-nitropropane-1,3-diol ([1]; additive to the basic preparation, versus basic preparation D)
improved | 0.9 | [O-][n+]1ccccc1SSc1cccc[n+]1[O-] [pyrion disulphide, 2,2′-dithiobis(pyridine N-oxide)] | 
 |  | c1c[nH]cn1 [imidazole] | stabilizing effect on the composition, albeit to a lesser extent
